Reference: ChEMBL document CHEMBL1130201, “Antimalarial activity of molecules interfering with Plasmodium falciparum phospholipid metabolism. Structure-activity relationship analysis” (J Med Chem, 1997)

What follows are compounds tested on Plasmodium falciparum (assay: Inhibitory activity against Plasmodium falciparum). Details: not given.
Type: functional, organism-based
In the case of CETRIMIDE, the IC50 is reported as 0.9 µM.

Same assay, conditions: Plasmodium falciparum
CCCCCCCCCCCC[N+](C)(C)C showed an IC50 of 0.5 µM. CCCCCCCCCCCCCC[N+](C)(C)CCO gave an IC50 of 0.6 µM. NCCCO gave an IC50 of 800 µM. With CCCCCCCCCCCC[N+](C)(C)CCBr the IC50 was 0.21 µM. Work on C[N+]1(CCO)CCOCC1 yielded an IC50 of 4830 µM. C[C@H]1O[C@@H](C[N+](C)(C)C)C[C@@H]1O was tested, and the IC50 was over 200 µM. Compound CC(N)CO (stereo unspecified) has an IC50 of 300 µM. CCCCCCCCCCCCCCCCCC[N+](C)(C)CCO gave an IC50 of 1.3 µM. CCCCCCCCCCCC[N+](CCC)(CCC)CCC was tested, and the IC50 was 0.033 µM. CCCCCCCCCCCC[N+](CC)(CC)CC gave an IC50 of 0.064 µM. Compound NC(CO)CO has an IC50 of 50 µM. Compound CCCCCCCCCCC[N+](C)(C)C has an IC50 of 0.5 µM. In the case of CCCCCCCCCCCC[N+](C)(CCO)CCCCCCCCCCCC, the IC50 is reported as 0.84 µM. CCCCCCCCCC[N+](C)(C)CCO showed an IC50 of 0.97 µM. OCCN1CCCCC1 was tested, and the IC50 was 350 µM. OCCN1CCN(CCO)CC1 gave an IC50 of 1200 µM. With CCCCCCC[N+](C)(C)C the IC50 was 300 µM. CCCCCCCCCCCCCCCCCC[N+](CC)(CC)CCO gave an IC50 of 0.62 µM. CC[N+](CC)(CCO)CCCCC[N+](CC)(CC)CCO gave an IC50 of 1260 µM. For CCCCCCCCCCCCCCCCCC[N+](C)(C)Cc1ccccc1, the IC50 was 0.7 µM. OCCN1CC1 gave an IC50 of 50 µM. OC1CCNC1 (stereo unspecified) was tested, and the IC50 was over 1000 µM. Compound CC[N+](C)(C)CCO has an IC50 of over 300 µM. CN(C)CCCCCCN(C)C showed an IC50 of 130 µM. Compound C[N+]1(CCCCC[N+]2(C)CCCC2)CCCC1 has an IC50 of 650 µM. Compound C[N+](C)(CCO)CC(=O)c1ccc(-c2ccc(C(=O)C[N+](C)(C)CCO)cc2)cc1 has an IC50 of 4 µM. Work on CC[N+](CC)(CCO)CCCCCCCCCC[N+](CC)(CC)CCO yielded an IC50 of 2 µM. CCCCCCCCCCCCNCCOC gave an IC50 of 2.1 µM. CCCCCCCCCCCCCC[N+](CC)(CC)CCO gave an IC50 of 0.55 µM. C[N+]1(CCCCCCCCCC[N+]2(C)CCCC2)CCCC1 was tested, and the IC50 was 0.15 µM. Compound CCCCCCCCC[N+](C)(C)C has an IC50 of 1.6 µM. Compound CCCCCCCCCCCCNC(CC)CO (stereo unspecified) has an IC50 of 0.61 µM. Work on NCCCCCN yielded an IC50 of 2000 µM. In the case of C[Se+](C)CCO, the IC50 is reported as 420 µM. CCCCCCCCCCCCNCCO showed an IC50 of 0.51 µM. With CCC(N)(CO)CO the IC50 was 600 µM. Compound CCCCCCCCCCCC[N+](C)(C)CCO has an IC50 of 0.48 µM. CCCCCCCCCCCC[N+](CC)(CC)CCO was tested, and the IC50 was 0.34 µM. C[N+](C)(C)CCCCCCCCCCCC[N+](C)(C)C showed an IC50 of 0.09 µM. In the case of OCCNCc1ccccc1, the IC50 is reported as 40 µM. Work on CCCCCCCCCCCC[N+](C)(C)CCCC yielded an IC50 of 0.26 µM. Work on C[N+](C)(CCO)Cc1ccccc1 yielded an IC50 of 112 µM. With C[N+](C)(CCO)CCc1ccccc1 the IC50 was 110 µM. For C[N+](C)(CCO)C1CCCCC1, the IC50 was 120 µM. Work on C[N+](C)(C)C1CCCCC1O (stereo unspecified) yielded an IC50 of 700 µM. For CCCCCCCCCC[N+](C)(C)C, the IC50 was 0.7 µM. With OCCN1CCCC1 the IC50 was 420 µM. Compound OC1CCCNC1 (stereo unspecified) has an IC50 of over 1000 µM. Work on CC(C)(C)CCO yielded an IC50 of over 2000 µM. Work on CCCCC[N+](C)(C)CCO yielded an IC50 of 81.3 µM. CCCCCCCCCCCC[N+](C)(C)CC was tested, and the IC50 was 0.11 µM. CC(O)CN (stereo unspecified) was tested, and the IC50 was 800 µM. CCC(N)CO (stereo unspecified) gave an IC50 of 80 µM. CCCCCCCCCCCC[N+](CC)(CCO)CCCCCCCCCCCC was tested, and the IC50 was 1.5 µM. In the case of CC(Cc1ccccc1)[N+](C)(C)CCO (stereo unspecified), the IC50 is reported as 250 µM. CCCCCCCCCCCC[N+](C)(C)CCCCCCCCCCCC was tested, and the IC50 was 0.7 µM. NCCCCCO showed an IC50 of over 2000 µM. Compound C[N+]1(CCO)CCCC1 has an IC50 of 230 µM. CCCCCCCCCCCCN(C)CCO gave an IC50 of 1.3 µM. In the case of C[N+](C)(C)CCOP(=O)([O-])O, the IC50 is reported as 1200 µM. Work on CCCCCCCCCCCC[N+](C)(C)CCC yielded an IC50 of 0.15 µM. With CC(=O)OCC[N+](C)(C)C [ACETYLCHOLINE CHLORIDE] the IC50 was over 8000 µM. In the case of C[N+](C)(C)CC(=O)O [BETAINE], the IC50 is reported as over 8000 µM. In the case of C[N+](C)(C)CCCl [CHLORMEQUAT CHLORIDE], the IC50 is reported as 200 µM. Work on NCCS [CYSTEAMINE] yielded an IC50 of 200 µM. For CC(C)(N)CO [DEANOL], the IC50 was 900 µM. C[N+](C)(C)CCCCCCCCCC[N+](C)(C)C [DECAMETHONIUM BROMIDE] was tested, and the IC50 was 1.7 µM. OCCNCCO [DIETHANOLAMINE] showed an IC50 of 1100 µM. Compound CCN(CC)CCO [DIETHYLAMINOETHANOL] has an IC50 of 400 µM. Work on CN(C)CCO [DIMETHYLAMINOETHANOL] yielded an IC50 of 1300 µM. Work on C[N+](C)(C)CCCCCC[N+](C)(C)C [HEXAMETHONIUM BROMIDE] yielded an IC50 of 700 µM. Compound CN(C)CCOC(=O)COc1ccc(Cl)cc1 [MECLOFENOXATE] has an IC50 of 500 µM. Compound CCCCCCCCCCCCCC[N+](C)(C)Cc1ccccc1 [MIRISTALKONIUM CHLORIDE] has an IC50 of 1 µM. CC[N+](CC)(CC)CC [TETRYLAMMONIUM BROMIDE] gave an IC50 of 700 µM. CCCCCCCCCCCCCCCCCC[N+](C)(C)C [TRIMETHYL-OCTADECYL-AMMONIUM CHLORIDE] gave an IC50 of 2.1 µM.
